*1 amine or outer side, *2 acyl side, *3 side chain or, on linkers, in order; H or OH if unused. Where a SMILES comes first, the peptide text is derived from it. Bridges are numbered along the chain shown (N, C = ends). [ ]: non-standard residue; d: D form. The star is where a group is joined. X1 = CC[C@H](C)[C@@H](N[*:1])[C@@H](O)CC(=O)O[C@H](C(=O)[C@H](C)C(=O)[*:2])C(C)C; NMeY = CN[C@@H](Cc1ccc(O)cc1)C(=O)O; dNMeL = CN[C@H](CC(C)C)C(=O)O; Pyruvoyl = CC(=O)C(=O)*

This is an account of results in article PMC5054363 (Scientific Reports, 2016).

The target in assay [1] is T1, eEF1A2 purified from rabbit muscle (Oryctolagus cuniculus, UniProt Q71V39). The settings on record: saturation binding, Swillens fit. The procedure:
(§1) (A) Saturation binding curve. Protein and radioligand were incubated for 1 h at room temperature and samples were processed as described in the text. […] The experiment was performed as described in the text, and the experimental points were fitted to a single exponential decay equation by non-linear regression. […] Extracts were then digested with the indicated concentrations of subtilisin for 30 min at room temperature. Samples were resolved by SDS-PAGE and the degradation of eEF1A2 analyzed by Western blot; quantitation of the bands from the DARTS assay was performed with the ImageJ software.

Assay [2] concerns sphingosine kinase-1 (SK1). Put plainly: Direct effect on SK1. The assay is classed as biochemical. The settings on record: preliminary, data not shown.
The test system of assay [3] is eEF1A2 in HeLa protein extract. Put plainly: DARTS assay (subtilisin digestion of HeLa protein extract). The assay is classed as binding, human. The settings on record: plitidepsin 1 h, subtilisin 30 min, room temperature, Western blot. The procedure: (A) Saturation binding curve. […] (B) Dissociation kinetics of [14C]-plitidepsin from eEF1A2.
Each sample was then digested with subtilisin for 30 min at room temperature.
Protein extracts from HeLa cells were obtained by treating them with lysis buffer (see above) and kept on ice for 15 min. Cell extracts were cleared by centrifugation at 14,000 × g for 15 min at 4 °C. […] Extracts were digested with the indicated concentrations of Subtilisin (EC 3.4.21.62) for 30 min at RT. […] Quantitation of the eEF1A2 bands was performed with the Image Lab v5.2.1 software (Bio-Rad, Hercules, CA, USA).

Assay [4] concerns HeLa cervical cancer cells. Further details: method as in PMID 15365569. The settings on record: HeLa parental cells, 72 h, Fig. 1A; reported as previously described; cited from earlier work.
A further assay concerns human leukemic cells. Conditions: cited from earlier work. The text has this: The high affinity of this interaction is in consonance with the nanomolar antiproliferative potency of this compound, also observed in many previous reports (for a review see ref. [10]).
For assay [5], the system named is CHRM4 (M4 muscarinic acetylcholine receptor). Put plainly: PathHunter acetylcholine-mediated CHRM4 activation. The assay is classed as cell-based. The settings on record: CHO-transfected cell line, preliminary, data not shown. The text has this:
(§2) For example, it is known that eEF1A is able to directly increase the activity of sphingosine kinase-1 (SK1), an effect that is related to oncogenesis. […] The hijacking of eEF1A with the consequent reduction of SK1 activity has already been described as a biological mechanism in dengue virus type-2 infected cells. Another example is the specific binding of eEF1A2 to the i3 loop of M4, but not M1, muscarinic acetylcholine receptor[40]. This direct interaction with M4 regulates its cell membrane density and activity. […] This is due to a specific interaction of eEF1A with aberrant polypeptides named defective ribosomal products (DRiPs) that are ligated to multi-ubiquitin chains following translation damage; eEF1A also plays a role in sensing DRiP accumulation when the proteasome is inhibited.

The test system of assay [6] is signaling in HeLa cells overexpressing eEF1A2-GFP. Put plainly: Signaling (Western blot) in HeLa overexpressing eEF1A2-GFP. The assay is classed as cell-based, human. The settings on record: plitidepsin 450 nM. The procedure: (A) HeLa and HeLa-APL-R cells were stably transfected with an expression vector encoding for eEF1A2-GFP fusion protein. Clones homogeneously expressing the GFP were selected. The levels of expression of eEF1A2 were analyzed by Western blot using specific antibodies. The position of the endogenous and the GFP-fusion proteins are indicated. […] Levels of expression attained after transfection were similar to the endogenous levels. […] Concentration-response curves were performed at 72 h. Cell growth was determined by the MTT method and expressed as percentage of control cell survival.
For transfection and selection of cell clones, HeLa and HeLa-APL-R cells were seeded in 24 well plates at 40% confluence and allowed to stand for 24 hours at 37 °C and 5% CO2. Before transfection, the culture medium was changed to Opti-MEM (Life Technologies, Carlsbad, CA, USA). Plasmids encoding eEF1A2-GFP were incubated with Lipofectamine (Life Technologies, Carlsbad, CA, USA) under the recommendations of the manufacturer and added to the cell medium. After 24 h incubation at 37 °C and 5% CO2, the culture medium was replaced by the standard DMEM supplemented with 2 mg/ml of G-418 for the selection of clones expressing the exogenous gene. Clones were further selected following the expression of the GFP-fused protein through fluorescence microscopy.

In assay [7] the test system is K-562 chronic myelogenous leukemia cells. Put plainly: Cell growth inhibition (72 h), K-562. The settings on record: K-562, 72 h. The assay is classed as cell-based.
For assay [8], the system named is HeLa-APL-R cervical cancer cells (plitidepsin-resistant). Further details: method as in PMID 15365569. The settings on record: 72 h, Fig. 1A, reported as previously described; cited from earlier work.
Assay [9] concerns the target T1, eEF1A2 purified from rabbit muscle. The experiment in a line: biochemical. The procedure:
as §1
At the selected times after this last addition, 400 μL of each sample were withdrawn and processed as above.

In assay [10] the test system is human haploid cells with eEF1A2 knock-out. Conditions: CRISPR/CAS9, versus parental cells, data not shown, results not conclusive.
The subject of assay [11] is CHRM1 (M1 muscarinic acetylcholine receptor). The experiment in a line: PathHunter CHRM1 activation. The assay is classed as cell-based. The settings on record: data not shown.
Text: as §2

The subject of assay [12] is NCI-H460-APL-R non-small cell lung cancer cells (plitidepsin-resistant). The experiment in a line: Cell growth inhibition (MTT, 72 h), NCI-H460-APL-R. The assay is classed as cell-based. The settings on record: highest concentration tested 100 nM.
Assay [13] concerns signaling events in HeLa-APL-R cells. The settings on record: HeLa-APL-R versus parental HeLa; cited from earlier work. An excerpt:
In contrast, HeLa cells ectop ...

Assay [14] has as its system HGC27 gastric carcinoma cells. The experiment in a line: Cell growth inhibition (MTT, 72 h), HGC27. The assay is classed as cell-based. Conditions: parental HGC27, 72 h.
Procedure: HeLa cervix adenocarcinoma (ATCC CCL-2), K-562 chronic myelogenous leukemia (ATCC CCL-243), NCI-H460 lung cancer (ATCC HTB-177) and HGC27 gastric cancer (ATCC CRL-2506) cells were obtained from ATCC (Manassas, VA, USA) and cultured following standard procedures. Viability assays were performed utilizing 3-(4,5-dimethylthiazol-2-yl)-2,5-diphenyltetrazolium bromide (MTT) according to methods described elsewhere[46].

T1 sequence (Q71V39 whole entry): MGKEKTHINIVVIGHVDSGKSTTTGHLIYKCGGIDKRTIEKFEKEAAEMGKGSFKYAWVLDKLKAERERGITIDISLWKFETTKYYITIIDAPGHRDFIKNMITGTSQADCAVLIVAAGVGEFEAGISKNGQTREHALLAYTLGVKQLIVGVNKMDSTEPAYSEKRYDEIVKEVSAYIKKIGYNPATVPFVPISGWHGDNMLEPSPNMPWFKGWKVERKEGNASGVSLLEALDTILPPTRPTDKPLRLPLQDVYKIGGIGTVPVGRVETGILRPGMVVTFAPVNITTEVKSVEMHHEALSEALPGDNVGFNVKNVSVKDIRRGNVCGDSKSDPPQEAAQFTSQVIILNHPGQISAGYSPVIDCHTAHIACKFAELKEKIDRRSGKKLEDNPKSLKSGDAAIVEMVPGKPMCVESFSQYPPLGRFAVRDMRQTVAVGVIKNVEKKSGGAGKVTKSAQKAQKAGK

For the compound `CC[C@H](C)[C@H]1NC(=O)[C@@H](NC(=O)[C@@H](CC(C)C)N(C)C(=O)[C@@H]2CCCN2C(=O)C(C)=O)[C@@H](C)OC(=O)[C@H](Cc2ccc(OC)cc2)N(C)C(=O)[C@@H]2CCCN2C(=O)[C@H](CC(C)C)NC(=O)[C@@H](C)C(=O)[C@H](C(C)C)OC(=O)C[C@@H]1O` [plitidepsin, Plitidepsin] (Pyruvoyl-P[dNMeL]T[X1]LP[NMeY](Me); ester 3-C (inferred)), the dissociation constant Kd in assay [1] ([14C]-plitidepsin 0.1 to 4 μM, 100 nM rabbit eEF1A2, 1 μM Gpp(NH)p, pH 7.5, 5% DMSO, 1 h, room temperature, filtration, triplicate) turned out to be 79 ± 30 nM. The Bmax in assay [1] ([14C]-plitidepsin, 1 h, room temperature) is reported as 0.7 mol per mol of protein. The “alpha (ratio between non-specifically bound ligand and free ligand)” value in [1] ([14C]-plitidepsin) is 0.014 ± 0.0005. The “direct effect on SK1” value in assay [2] was “not due to a direct effect of the drug on SK1”. Also, the “protection of eEF1A2 from digestion by subtilisin” value in assay [3] is on record as “protected eEF1A2 from digestion by subtilisin in a concentration-dependent manner”. The concentration for half-maximal inhibition (IC50) in assay [4] was 1 nM; in [7], 9.35 nM; in assay [8] it was above 100 nM; in assay [14], 0.9 nM. The “effect of cytochalasin B and jasplakinolide pretreatment on apoptotic response” value in the assay with human leukemic cells (10 nM plitidepsin, actin-binding agents) is “prevented”. Moreover, the “effect of cycloheximide pretreatment on apoptotic response” value in the assay with human leukemic cells (10 nM plitidepsin, cycloheximide at concentrations that inhibit protein synthesis) was “not to be affected”. Also, the apoptotic response result in the assay on human leukemic cells (human leukemic cells, 10 nM) was “fast and complete apoptotic response”. Moreover, in assay [5], the “decrease of acetylcholine-mediated CHRM4 activation” value is given as 55%. The “alteration in the signaling elicited by plitidepsin” value in assay [6] is “did not show any alteration in the signaling”. Further, the koff in [9] (read-out: kOFF (first-order rate constant of dissociation)) was determined as 0.0019 ± 8e-07 s⁻¹. Besides, in [9] (read-out: target residence time, from dissociation kinetics (kOFF), rabbit eEF1A2), the residence time came out at 8.8 min. In addition, the “resistance of eEF1A2 knock-out cells to plitidepsin” value in [10] is listed as “increased resistance”. Moreover, the “effect on CHRM1” value in assay [11] is reported as “did not affect CHRM1”. Besides, the “effect on cell growth” value in [12] is “did not cause any effect on cell growth”. Also, the “signaling events triggered by plitidepsin” value in [13] was “completely lost”.
